# Test results published in PubChem BioAssay (NCI).
#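 Where inhibition never reached the appropriate level, the endpoint shown equals the highest concentration tested. Otherwise, values were interpolated linearly from a five-concentration, 48-hour dose response in 96-well plates. GI50: concentration for 50% inhibition of growth. TGI denotes the concentration required for complete inhibition of growth.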
# Experiments:
# Assay in all cases: NCI-60 cell line screen, 48 h
# 786-0 renal = test system: 786-0 renal
# ACHN renal = test system: ACHN renal
# CAKI-1 renal = test system: CAKI-1 renal
# COLO 205 colon = test system: COLO 205 colon
# DU-145 prostate = test system: DU-145 prostate
# EKVX NSCLC = test system: EKVX NSCLC
# HCC-2998 colon = test system: HCC-2998 colon
# HCT-15 colon = test system: HCT-15 colon
# HOP-62 NSCLC = test system: HOP-62 NSCLC
# HS 578T breast = test system: HS 578T breast
# HT29 colon = test system: HT29 colon
# IGROV1 ovarian = test system: IGROV1 ovarian
# KM12 colon = test system: KM12 colon
# LOX IMVI melanoma = test system: LOX IMVI melanoma
# M14 melanoma = test system: M14 melanoma
# MALME-3M melanoma = test system: MALME-3M melanoma
# MCF7 breast = test system: MCF7 breast
# MDA-MB-231 breast = test system: MDA-MB-231 breast
# MDA-MB-435 = test system: MDA-MB-435
# MDA-N = test system: MDA-N
# NCI-H226 lung = test system: NCI-H226 lung
# NCI-H460 lung = test system: NCI-H460 lung
# NCI-H522 lung = test system: NCI-H522 lung
# NCI/ADR-RES ovarian = test system: NCI/ADR-RES ovarian
# OVCAR-3 ovarian = test system: OVCAR-3 ovarian
# OVCAR-5 ovarian = test system: OVCAR-5 ovarian
# OVCAR-8 ovarian = test system: OVCAR-8 ovarian
# PC-3 prostate = test system: PC-3 prostate
# RXF 393 renal = test system: RXF 393 renal
# SF-268 CNS = test system: SF-268 CNS
# SF-295 CNS = test system: SF-295 CNS
# SF-539 CNS = test system: SF-539 CNS
# SK-MEL-2 melanoma = test system: SK-MEL-2 melanoma
# SK-MEL-28 melanoma = test system: SK-MEL-28 melanoma
# SK-MEL-5 melanoma = test system: SK-MEL-5 melanoma
# SK-OV-3 ovarian = test system: SK-OV-3 ovarian
# SN12C renal = test system: SN12C renal
# SNB-75 CNS = test system: SNB-75 CNS
# SW-620 colon = test system: SW-620 colon
# T-47D breast = test system: T-47D breast
# TK-10 renal = test system: TK-10 renal
# U251 CNS = test system: U251 CNS
# UO-31 renal = test system: UO-31 renal
# A498 renal = test system: A498 renal
# A549 NSCLC = test system: A549 NSCLC
# BT-549 breast = test system: BT-549 breast
# CCRF-CEM leukemia = test system: CCRF-CEM leukemia
# HCT-116 colon = test system: HCT-116 colon
# HL-60(TB) leukemia = test system: HL-60(TB) leukemia
# HOP-92 NSCLC = test system: HOP-92 NSCLC
# K-562 leukemia = test system: K-562 leukemia
# MOLT-4 leukemia = test system: MOLT-4 leukemia
# NCI-H23 lung = test system: NCI-H23 lung
# OVCAR-4 ovarian = test system: OVCAR-4 ovarian
# RPMI-8226 leukemia = test system: RPMI-8226 leukemia
# SNB-19 CNS = test system: SNB-19 CNS
# SR leukemia = test system: SR leukemia
# UACC-257 melanoma = test system: UACC-257 melanoma
# UACC-62 melanoma = test system: UACC-62 melanoma
smiles,measurement,setting,value
N#C/C(=C/C=C/c1ccco1)C(N)=O,TGI,786-0 renal,> 10 µM
same,TGI,ACHN renal,> 10 µM
same,TGI,CAKI-1 renal,> 10 µM
same,TGI,COLO 205 colon,> 10 µM
same,TGI,DU-145 prostate,> 10 µM
same,TGI,EKVX NSCLC,> 10 µM
same,TGI,HCC-2998 colon,> 10 µM
same,TGI,HCT-15 colon,> 10 µM
same,TGI,HOP-62 NSCLC,> 10 µM
same,TGI,HS 578T breast,> 10 µM
same,TGI,HT29 colon,> 10 µM
same,TGI,IGROV1 ovarian,> 10 µM
same,TGI,KM12 colon,> 10 µM
same,TGI,LOX IMVI melanoma,> 10 µM
same,TGI,M14 melanoma,> 10 µM
same,TGI,MALME-3M melanoma,> 10 µM
same,TGI,MCF7 breast,> 10 µM
same,TGI,MDA-MB-231 breast,> 10 µM
same,TGI,MDA-MB-435,> 10 µM
same,TGI,MDA-N,> 10 µM
same,TGI,NCI-H226 lung,> 10 µM
same,TGI,NCI-H460 lung,> 10 µM
same,TGI,NCI-H522 lung,> 10 µM
same,TGI,NCI/ADR-RES ovarian,> 10 µM
same,TGI,OVCAR-3 ovarian,> 10 µM
same,TGI,OVCAR-5 ovarian,> 10 µM
same,TGI,OVCAR-8 ovarian,> 10 µM
same,TGI,PC-3 prostate,> 10 µM
same,TGI,RXF 393 renal,> 10 µM
same,TGI,SF-268 CNS,> 10 µM
same,TGI,SF-295 CNS,> 10 µM
same,TGI,SF-539 CNS,> 10 µM
same,TGI,SK-MEL-2 melanoma,> 10 µM
same,TGI,SK-MEL-28 melanoma,> 10 µM
same,TGI,SK-MEL-5 melanoma,> 10 µM
same,TGI,SK-OV-3 ovarian,> 10 µM
same,TGI,SN12C renal,> 10 µM
same,TGI,SNB-75 CNS,> 10 µM
same,TGI,SW-620 colon,> 10 µM
same,TGI,T-47D breast,> 10 µM
same,TGI,TK-10 renal,> 10 µM
same,TGI,U251 CNS,> 10 µM
same,TGI,UO-31 renal,> 10 µM
Cc1ccc(S(=O)(=O)Oc2ccc3c4c(c(=O)oc3c2)CCCCCC4)cc1,GI50,786-0 renal,> 100 µM
same,TGI,786-0 renal,> 100 µM
same,GI50,A498 renal,4.43 µM
same,TGI,A498 renal,> 100 µM
same,GI50,A549 NSCLC,> 100 µM
same,TGI,A549 NSCLC,> 100 µM
same,GI50,ACHN renal,> 100 µM
same,TGI,ACHN renal,> 100 µM
same,GI50,BT-549 breast,> 100 µM
same,TGI,BT-549 breast,> 100 µM
same,GI50,CCRF-CEM leukemia,8.92 µM
same,TGI,CCRF-CEM leukemia,> 100 µM
same,GI50,COLO 205 colon,2.92 µM
same,TGI,COLO 205 colon,> 100 µM
same,GI50,DU-145 prostate,> 100 µM
same,TGI,DU-145 prostate,> 100 µM
same,GI50,HCC-2998 colon,> 100 µM
same,TGI,HCC-2998 colon,> 100 µM
same,GI50,HCT-116 colon,8.04 µM
same,TGI,HCT-116 colon,> 100 µM
same,GI50,HCT-15 colon,3.16 µM
same,TGI,HCT-15 colon,> 100 µM
same,GI50,HL-60(TB) leukemia,7.17 µM
same,TGI,HL-60(TB) leukemia,> 100 µM
same,GI50,HOP-62 NSCLC,> 100 µM
same,TGI,HOP-62 NSCLC,> 100 µM
same,GI50,HOP-92 NSCLC,1.34 µM
same,TGI,HOP-92 NSCLC,> 100 µM
same,GI50,HS 578T breast,> 100 µM
same,TGI,HS 578T breast,> 100 µM
same,GI50,HT29 colon,0.531 µM
same,TGI,HT29 colon,> 100 µM
same,GI50,IGROV1 ovarian,> 100 µM
same,TGI,IGROV1 ovarian,> 100 µM
same,GI50,K-562 leukemia,3.88 µM
same,TGI,K-562 leukemia,> 100 µM
same,GI50,KM12 colon,4.78 µM
same,TGI,KM12 colon,> 100 µM
same,GI50,LOX IMVI melanoma,> 100 µM
same,TGI,LOX IMVI melanoma,> 100 µM
same,GI50,M14 melanoma,> 100 µM
same,TGI,M14 melanoma,> 100 µM
same,GI50,MALME-3M melanoma,> 100 µM
same,TGI,MALME-3M melanoma,> 100 µM
same,GI50,MCF7 breast,> 100 µM
same,TGI,MCF7 breast,> 100 µM
same,GI50,MDA-MB-231 breast,> 100 µM
same,TGI,MDA-MB-231 breast,> 100 µM
same,GI50,MDA-MB-435,> 100 µM
same,TGI,MDA-MB-435,> 100 µM
same,GI50,MOLT-4 leukemia,9.57 µM
same,TGI,MOLT-4 leukemia,> 100 µM
same,GI50,NCI-H226 lung,8.31 µM
same,TGI,NCI-H226 lung,> 100 µM
same,GI50,NCI-H23 lung,> 100 µM
same,TGI,NCI-H23 lung,> 100 µM
same,GI50,NCI-H460 lung,> 100 µM
same,TGI,NCI-H460 lung,> 100 µM
same,GI50,NCI-H522 lung,> 100 µM
same,TGI,NCI-H522 lung,> 100 µM
same,GI50,NCI/ADR-RES ovarian,5.08 µM
same,TGI,NCI/ADR-RES ovarian,> 100 µM
same,GI50,OVCAR-3 ovarian,> 100 µM
same,TGI,OVCAR-3 ovarian,> 100 µM
same,GI50,OVCAR-4 ovarian,> 100 µM
same,TGI,OVCAR-4 ovarian,> 100 µM
same,GI50,OVCAR-5 ovarian,> 100 µM
same,TGI,OVCAR-5 ovarian,> 100 µM
same,GI50,OVCAR-8 ovarian,> 100 µM
same,TGI,OVCAR-8 ovarian,> 100 µM
same,GI50,PC-3 prostate,5.97 µM
same,TGI,PC-3 prostate,> 100 µM
same,GI50,RPMI-8226 leukemia,2.33 µM
same,TGI,RPMI-8226 leukemia,> 100 µM
same,GI50,RXF 393 renal,> 100 µM
same,TGI,RXF 393 renal,> 100 µM
same,GI50,SF-268 CNS,> 100 µM
same,TGI,SF-268 CNS,> 100 µM
same,GI50,SF-295 CNS,> 100 µM
same,TGI,SF-295 CNS,> 100 µM
same,GI50,SF-539 CNS,> 100 µM
same,TGI,SF-539 CNS,> 100 µM
same,GI50,SK-MEL-2 melanoma,75 µM
same,TGI,SK-MEL-2 melanoma,> 100 µM
same,GI50,SK-MEL-28 melanoma,> 100 µM
same,TGI,SK-MEL-28 melanoma,> 100 µM
same,GI50,SK-MEL-5 melanoma,4.45 µM
same,TGI,SK-MEL-5 melanoma,> 100 µM
same,GI50,SK-OV-3 ovarian,> 100 µM
same,TGI,SK-OV-3 ovarian,> 100 µM
same,GI50,SN12C renal,> 100 µM
same,TGI,SN12C renal,> 100 µM
same,GI50,SNB-19 CNS,> 100 µM
same,TGI,SNB-19 CNS,> 100 µM
same,GI50,SNB-75 CNS,> 100 µM
same,TGI,SNB-75 CNS,> 100 µM
same,GI50,SR leukemia,5.66 µM
same,TGI,SR leukemia,> 100 µM
same,GI50,SW-620 colon,2.76 µM
same,TGI,SW-620 colon,> 100 µM
same,GI50,T-47D breast,5.05 µM
same,TGI,T-47D breast,> 100 µM
same,GI50,TK-10 renal,> 100 µM
same,TGI,TK-10 renal,> 100 µM
same,GI50,U251 CNS,> 100 µM
same,TGI,U251 CNS,> 100 µM
same,GI50,UACC-257 melanoma,8.7 µM
same,TGI,UACC-257 melanoma,> 100 µM
same,GI50,UACC-62 melanoma,> 100 µM
same,TGI,UACC-62 melanoma,> 100 µM
same,GI50,UO-31 renal,27.3 µM
same,TGI,UO-31 renal,> 100 µM
